{
  "source": "patent US6878689B2",
  "about": "“Preventives or remedies for heart failure” (Kaken Pharmaceutical Co., Ltd., priority 2000, dated 2005)",
  "tested_on": "anesthetized open-chest rabbits",
  "assay": "Effects of intravenously administered pralmorelin on cardiac function of anesthetized open-chest rabbit",
  "type": "in vivo",
  "experimental": "[Test Example 2] Effects of Intravenously Administered Pralmorelin on the Cardiac Function of Rabbit\nThe effects of pralmorelin on cardiac function were evaluated by measuring various parameters [blood pressure, heart rate, systolic left ventricular pressure (LVPsys), and maximal positive dP/dt (+dP/dtmax) obtained by differentiating the waveform of left ventricular pressure (LVP)]. The value of the maximal positive dP/dt for the left ventricular pressure (+dP/dtmax) is particularly important to determine if the cardiotonic action is sufficient to treat acute heart failure. • 1. Test Substance and Reagent • 1) Test Substance\nPralmorelin dihydrochloride (hereunder referred to as KP-102) (prepared by the method described in WO 9304081) was dissolved in distilled water for injection to prepare a 1.5 mg/mL solution. • 2) Control\nMale NZW-strain rabbits (Kitayama Labes) weighing about 2 kg were used in the experiment. After arrival, the animals were allowed to eat a solid meal (Labo R Stock, Oriental Yeast Co., Ltd.) and drink water in a room at a temperature of 20±2° C. and at a humidity of 55±15% under 12-hr light/ dark cycles (from 7:00 to 19:00); the animals were kept under these conditions for at least 6 days before use. • 3. Test Method • 1) Measuring the Cardiac Function of Anesthetized Open-Chest Rabbit\nRabbits were anesthetized by administering 30 mg/kg of sodium pentobarbital into the auricular vein at a slow speed with attention to their breathing. The animals were then fixed in supine position and an endotracheal cannula was inserted. Under artificial respiration (tidal volume, 25 mL/breath; ventilation frequency, 45 breaths/min: SN-480-7 of Shinano Seisakusyo), the chest of each animal was opened by midline incision and the pericardium was incised to expose the heart. The left ventricular pressure (LVP) was measured with a pressure transducer (TP-300T, Nihon Kohden) and a pressure amplifier (AG-610G, Nihon Kohden) as a cannula with syringe was inserted from the cardiac apex into the left ventricle. The waveform of LVP was differentiated with a differentiator unit (ED-601, Nihon Kohden) to determine the maximal positive dP/dt(+dP/dtmax), which was used as an index for cardiac contractility. Blood pressure was measured with a pressure amplifier (AP-610G, Nihon Kohden) via a pressure transducer (TP-300T, Nihon Kohden) connected to a cannula inserted into the left femoral artery. Heart rate was measured with a cardiotachometer (AT-601G, Nihon Kohden) that was driven by counting the pulse waves of LVP. The parameters mentioned above were recorded on a recorder (TA-11, Gould). A cannula was inserted into the left femoral vein so as to assist in the administration of the test substance. The rectum temperature of each animal was controlled at 39° C. with a body temperature controller (TK-43, Asahi Denshi). The anesthetic was added as required but additional anesthetization should be avoided during the measurements. • 2) Groups\nAfter each parameter stabilized, distilled water (0.2 mL/kg) was administered over one minute with an infusion pump (FP-W-100, Toyo Sangyo K.K.) and observations were made for 5 minutes after the administration to see whether the vehicle would have no effect. About 5 minutes after the administration of distilled water, the test substance was administered with an infusion pump in a volume of 0.2 mL/kg over one minute according to the grouping method specified above. Each hemodynamic parameter was measured both before administration and 1, 3, 5, 10, 15, 20 and 25 minutes after administration and the percent changes from the basal values were calculated. In some animals, measurement was conducted until 40 minutes after the administration of the test substance. • 4. Statistical Analysis\nThe results were each expressed by mean ± standard deviation. Any difference between groups was tested by repeated measures ANOVA (analysis of variance); The significance level was set at 5%. • 5. […]",
  "key": {"[1]": {"conditions": "300 μg/kg i.v. over one minute, n=4, p<0.01 vs control"}},
  "note": "Where a SMILES comes first, the peptide text is derived from it. [ ]: non-standard residue; d: D form. d2Nal = N[C@H](Cc1ccc2ccccc2c1)C(=O)O",
  "data": [
    {"smiles": "C[C@H](NC(=O)[C@@H](Cc1ccc2ccccc2c1)NC(=O)[C@@H](C)N)C(=O)N[C@@H](Cc1c[nH]c2ccccc12)C(=O)N[C@H](Cc1ccccc1)C(=O)N[C@@H](CCCCN)C(N)=O", "note": "[KP-102, D-alanyl-3-(naphthalen-2-yl)-D-alanyl-L-alanyl-L-tryptophyl-D-phenylalanyl-L-lysinamide] (H-[dA][d2Nal]AW[dF]K-NH2)", "values": [
      {"measurement": "overall effect on heart rate", "setting": "300 μg/kg i.v.", "value": "little affected"},
      {"measurement": "time until blood pressure baseline value practically restored", "setting": "300 μg/kg i.v.", "value": "~25", "unit": "min"},
      {"measurement": "Maximum increase in +dP/dtmax, of the baseline value", "setting": "[1]", "value": 22, "unit": "%"},
      {"measurement": "Maximum increase in LVPsys, of the baseline value", "setting": "[1]", "value": 13, "unit": "%"},
      {"measurement": "drop in heart rate", "setting": "300 μg/kg i.v., 3 minutes after the administration", "value": 2, "unit": "%"},
      {"measurement": "increase in heart rate", "setting": "300 μg/kg i.v., 15 minutes after the administration", "value": 1, "unit": "%"},
      {"measurement": "increase in heart rate", "setting": "300 μg/kg i.v., 25 minutes after the administration", "value": 2, "unit": "%"},
      {"measurement": "period of peak of cardiotonic action", "setting": "300 μg/kg i.v., LVPsys and +dP/dtmax", "value": "5 to 10", "unit": "min"},
      {"measurement": "time until baseline values of LVPsys and +dP/dtmax restored", "setting": "300 μg/kg i.v., one case with extended monitoring", "value": "≤ 40", "unit": "min"},
      {"measurement": "effect on mean blood pressure", "setting": "300 μg/kg i.v., p<0.05 vs control", "value": "significant rise of blood pressure"}
    ]}
  ]
}
